Starred links: 1 amine or outer side, 2 acyl side, 3 side chain; linkers in the order of their positions; H or OH if unused. Positions of bridges follow the written chain, without caps; N, C: chain ends. Non-standard residues stand in square brackets, D forms with d. Residues, ends and D or L forms follow the SMILES beside them. *: point of attachment. Gly((CH2)5SH) = N[C@@H](CCCCCS)C(=O)O; mXylylene = c1cc(C[*:1])cc(C[*:2])c1; X1 = O=C(CN(CC[*:3])[*:1])[*:2]; Nle = CCCC[C@H](N)C(=O)O; Dap = NC[C@H](N)C(=O)O; BrAc = O=C(CBr)*; βAla = NCCC(=O)O; Mpa = O=C(O)CCS
Experiments:
[1] = target: T1, TCF4-CTNNB1 complex (Homo sapiens, UniProt P35222); experiment: Inhibition of FITC-labeled Tcf4 (unknown origin) / full length beta-catenin (1 to 781 residues) (unknown origin) protein-protein interaction measured after 1 hr by fluorescence polarization assay; format: protein-complex assay
T1 sequence (P35222 whole entry): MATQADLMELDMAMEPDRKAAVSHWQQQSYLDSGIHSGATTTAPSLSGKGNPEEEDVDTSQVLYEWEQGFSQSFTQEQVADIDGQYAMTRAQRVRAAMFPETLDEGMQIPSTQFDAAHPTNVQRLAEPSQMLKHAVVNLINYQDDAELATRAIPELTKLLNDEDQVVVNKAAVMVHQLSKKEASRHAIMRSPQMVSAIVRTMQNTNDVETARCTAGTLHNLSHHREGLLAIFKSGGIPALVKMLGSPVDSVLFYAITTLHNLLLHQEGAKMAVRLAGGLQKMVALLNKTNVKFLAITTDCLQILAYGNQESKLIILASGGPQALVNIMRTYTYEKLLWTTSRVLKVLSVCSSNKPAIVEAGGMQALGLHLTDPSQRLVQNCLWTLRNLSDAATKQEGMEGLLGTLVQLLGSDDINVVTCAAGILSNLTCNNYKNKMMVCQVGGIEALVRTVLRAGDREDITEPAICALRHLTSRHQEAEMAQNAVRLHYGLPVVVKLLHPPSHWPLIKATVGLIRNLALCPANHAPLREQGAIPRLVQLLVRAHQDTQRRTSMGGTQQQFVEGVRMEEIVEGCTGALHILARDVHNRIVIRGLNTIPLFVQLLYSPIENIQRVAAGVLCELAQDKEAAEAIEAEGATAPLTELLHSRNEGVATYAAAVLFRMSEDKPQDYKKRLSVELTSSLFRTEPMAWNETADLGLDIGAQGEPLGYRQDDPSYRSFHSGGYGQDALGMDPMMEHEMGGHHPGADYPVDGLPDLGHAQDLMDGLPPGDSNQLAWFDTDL
T1 sequence (P15884 whole entry): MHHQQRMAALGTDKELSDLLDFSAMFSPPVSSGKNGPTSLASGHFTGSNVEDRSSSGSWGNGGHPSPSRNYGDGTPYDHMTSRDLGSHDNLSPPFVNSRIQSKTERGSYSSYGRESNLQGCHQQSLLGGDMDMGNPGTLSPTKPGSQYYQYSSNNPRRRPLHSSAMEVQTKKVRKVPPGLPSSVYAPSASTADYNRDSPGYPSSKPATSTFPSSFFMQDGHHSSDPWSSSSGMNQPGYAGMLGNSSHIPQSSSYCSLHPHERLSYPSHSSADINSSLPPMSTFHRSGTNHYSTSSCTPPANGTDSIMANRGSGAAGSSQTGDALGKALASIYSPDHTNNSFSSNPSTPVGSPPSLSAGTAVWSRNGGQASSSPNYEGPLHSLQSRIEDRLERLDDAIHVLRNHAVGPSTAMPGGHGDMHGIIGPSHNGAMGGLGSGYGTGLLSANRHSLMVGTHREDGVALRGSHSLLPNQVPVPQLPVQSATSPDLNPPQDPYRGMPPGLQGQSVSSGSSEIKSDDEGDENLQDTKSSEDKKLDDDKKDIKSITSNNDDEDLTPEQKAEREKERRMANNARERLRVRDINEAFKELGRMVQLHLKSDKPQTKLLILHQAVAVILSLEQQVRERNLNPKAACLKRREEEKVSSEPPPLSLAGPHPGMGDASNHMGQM

[2] = target: T1, TCF4-CTNNB1 complex; experiment: Binding affinity to FITC-labeled Tcf4 (unknown origin) /6His-tagged beta-catenin (135 to 668 residues) (unknown origin) protein-protein interaction assessed as inhibition constant by fluorescence polarization assay; format: protein-complex assay
[3] = target: T2, E3 ubiquitin-protein ligase Mdm2 (Homo sapiens, UniProt Q00987); experiment: Binding affinity to MDM2 (unknown origin) by surface plasmon resonance analysis
[4] = target: T2, E3 ubiquitin-protein ligase Mdm2; experiment: Inhibition of MDM2 (unknown origin) by Fluorescence polarization assay
[5] = target: T3, Protein deacetylase HDAC6 (Homo sapiens, UniProt Q9UBN7); experiment: Inhibition of HDAC6 (unknown origin)
T3 sequence (Q9UBN7 whole entry): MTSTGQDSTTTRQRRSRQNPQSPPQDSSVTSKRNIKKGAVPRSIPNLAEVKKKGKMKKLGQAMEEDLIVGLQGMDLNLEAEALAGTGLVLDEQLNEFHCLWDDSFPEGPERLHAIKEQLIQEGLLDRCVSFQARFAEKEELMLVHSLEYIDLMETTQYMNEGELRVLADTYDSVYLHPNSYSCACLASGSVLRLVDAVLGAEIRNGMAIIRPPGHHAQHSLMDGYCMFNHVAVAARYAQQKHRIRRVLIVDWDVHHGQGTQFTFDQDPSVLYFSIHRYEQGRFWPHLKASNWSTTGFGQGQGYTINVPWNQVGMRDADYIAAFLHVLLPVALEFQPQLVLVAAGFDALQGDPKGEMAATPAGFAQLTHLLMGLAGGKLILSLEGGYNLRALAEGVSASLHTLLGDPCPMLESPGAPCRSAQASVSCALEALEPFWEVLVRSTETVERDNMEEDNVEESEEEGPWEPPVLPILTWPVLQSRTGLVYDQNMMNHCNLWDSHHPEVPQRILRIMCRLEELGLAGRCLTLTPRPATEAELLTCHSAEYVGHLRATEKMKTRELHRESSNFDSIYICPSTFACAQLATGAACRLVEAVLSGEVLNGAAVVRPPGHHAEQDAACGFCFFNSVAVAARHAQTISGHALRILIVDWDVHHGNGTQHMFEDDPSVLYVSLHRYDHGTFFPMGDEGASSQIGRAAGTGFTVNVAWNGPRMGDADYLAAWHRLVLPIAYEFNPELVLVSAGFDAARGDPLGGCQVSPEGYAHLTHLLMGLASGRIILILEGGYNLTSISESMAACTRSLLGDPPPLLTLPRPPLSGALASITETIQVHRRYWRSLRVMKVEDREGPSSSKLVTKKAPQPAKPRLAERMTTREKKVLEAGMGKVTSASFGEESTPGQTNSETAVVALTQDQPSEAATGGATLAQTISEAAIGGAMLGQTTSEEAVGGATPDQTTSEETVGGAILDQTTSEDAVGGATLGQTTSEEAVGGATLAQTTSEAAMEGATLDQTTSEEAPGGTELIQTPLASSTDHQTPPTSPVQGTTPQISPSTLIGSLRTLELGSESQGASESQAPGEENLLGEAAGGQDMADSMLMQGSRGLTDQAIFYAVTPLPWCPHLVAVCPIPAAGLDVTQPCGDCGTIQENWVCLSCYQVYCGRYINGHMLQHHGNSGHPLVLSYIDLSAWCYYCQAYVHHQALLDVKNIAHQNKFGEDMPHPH

T2 sequence (Q00987 whole entry): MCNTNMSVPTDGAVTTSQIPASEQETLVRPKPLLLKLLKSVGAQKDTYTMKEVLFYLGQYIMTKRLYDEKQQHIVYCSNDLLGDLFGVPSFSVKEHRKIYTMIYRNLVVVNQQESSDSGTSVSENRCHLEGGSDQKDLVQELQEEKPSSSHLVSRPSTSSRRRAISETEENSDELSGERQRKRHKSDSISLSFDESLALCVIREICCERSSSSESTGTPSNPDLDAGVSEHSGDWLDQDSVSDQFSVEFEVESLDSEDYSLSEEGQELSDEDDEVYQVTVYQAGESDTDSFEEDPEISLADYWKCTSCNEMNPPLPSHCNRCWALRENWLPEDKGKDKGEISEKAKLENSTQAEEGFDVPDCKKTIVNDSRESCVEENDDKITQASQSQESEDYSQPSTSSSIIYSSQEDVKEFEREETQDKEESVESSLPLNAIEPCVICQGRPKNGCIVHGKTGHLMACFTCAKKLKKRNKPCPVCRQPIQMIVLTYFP

With CC(C)C[C@@H]1NC(=O)[C@@H]2CSCc3cccc(c3)CSC[C@H](NC(=O)[C@H](CC(N)=O)NC(=O)[C@H](CCCNC(=N)N)NC(=O)[C@H]([C@@H](C)O)NC(=O)[C@H](C(C)C)NC(=O)CCNC(=O)CCNC(=O)[C@H](Cc3ccccc3)NC(=O)[C@H](C(C)C)NC(=O)[C@H](CC(C)C)NC1=O)C(=O)N[C@@H](C(C)C)C(=O)N1CCC[C@H]1C(=O)N1CCC[C@H]1C(=O)N[C@@H](CC(=O)O)C(=O)N2 (cyclo(CLLVF[βAla][βAla]VTRNCVPPD); linker 1-12 via mXylylene) the IC50 [1] was 4.8 µM.

CC[C@H](C)[C@@H]1NC(=O)[C@H](CNC(=O)CBr)NC(=O)[C@H](CC(=O)O)NC(=O)[C@H](CC(=O)O)NC(=O)CNC(=O)[C@@H]2CCCN2C(=O)[C@H](C)NC(=O)[C@H](CCCNC(=N)N)NC(=O)[C@H]([C@@H](C)O)NC(=O)[C@H](CCC(N)=O)NC(=O)[C@H]([C@@H](C)O)NC(=O)CCSCCN(CC(N)=O)C(=O)[C@H](Cc2ccccc2)NC(=O)[C@H]([C@@H](C)O)NC1=O ([Mpa]TQTRAPGDD[Dap](BrAc)ITF[X1]-NH2; thioether 1-15) was tested, and the IC50 [2] was 4 µM.

CN1CCC(=O)NCCSCCS(=O)(=O)CCN(Cc2ccc(C#N)cc2)CC(=O)N[C@@H](Cc2cc3ccc(Cl)cc3[nH]2)C1=O showed a Kd [3] of 5.5 µM and an IC50 [4] of 0.6 µM.

In the case of CCCC[C@@H]1NC(=O)[C@H](Cc2ccccc2)NC(=O)[C@H](CCCCCS)NC(=O)[C@H](CCCNC(=N)N)NC(=O)[C@H](CC(=O)O)NC(=O)[C@H](CO)NC(=O)[C@H](C)NC(=O)[C@H](CCCCN)NC1=O (cyclo(ASDR[Gly((CH2)5SH)]F[Nle]K)), the IC50 [5] is reported as 0.017 µM.

Reference: ChEMBL document CHEMBL5108037, “Cyclic Peptide Screening Methods for Preclinical Drug Discovery” (J Med Chem, 2022)
